The test system of one experiment is SSTR2. In words: Differential expression of SSTR2 in iPSC generated pituitary tumor organoids. Format: cell-based, human.
Experiment [1] relates to iPSC^USP48MV organoids. The experiment in a line: Proliferation by EdU uptake. The experiment is classed as cell-based, human. Particulars: drug alone, 500 nM. The protocol:
(§1) Organoids were immunostained using published protocols by our laboratory. Proliferation was measured by using 5-ethynyl-2'-deoxyuridine (EdU) incorporation according to the Manufacturer's protocol (Click-IT EdU Alexa Fluor 555 Imaging Kit, Thermo Fisher Scientific C10338). Costaining was performed by blocking fixed organoids with 2% donkey serum (Jackson Immuno Research, #017-000-121) diluted in 0.01% PBST for 1 hr. at room temperature. Organoids were then incubated overnight at 4° C. with primary antibodies followed by secondary antibodies and Hoechst (Thermo Fisher Scientific H1399, 1:1000 in 0.01% PBST) for 1 hr at room temperature. Human specific primary antibodies used included: rabbit anti-ACTH (Thermo Fisher Scientific 701293, 1:250), rabbit anti-Synaptophysin (Thermo Fisher Scientific PA5-27286, 1:100), […] (Thermo Fisher Scientific PA5-98650, 1:50), rabbit anti-LH (Thermo Fisher Scientific PA5-102674, 1:100), mouse anti-FSH (Thermo Fisher Scientific MIF2709, 1:100), mouse anti-PRL (Thermo Fisher Scientific CF500720, 1:100), Alexa Flour conjugated GH (NB500-364AF647, 1:100) and mouse anti-CAM5.2 (SIGMA […]-95, 1:250). The secondary antibodies used included Alexa Fluor 488 Donkey Anti Rabbit IgG (H+L) (Thermo Fisher Scientific A21206, 1:100) or Alexa Fluor 647 Donkey Anti Mouse IgG (H+L) (Thermo Fisher Scientific A31571, 1:100). Organoids were visualized and images acquired by confocal microscopy using the Nikon CrestV2 Spinning Disk. Fluorescence intensity and percentage of EdU positive cells of total cells, were calculated using Nikon Elements Software (Version 5.21.05).

The subject of experiment [2] is iPSC^ctrl organoids. The experiment in a line: Proliferation by EdU uptake. The experiment is classed as cell-based, human. The conditions noted are these: drug alone, 500 nM. On the procedure: as §1
In experiment [3] the test system is iPSC^USP48MV organoids. In words: Nuclear irregularity index (NII) morphometric analysis. Format: cell-based, human. The conditions noted are these: 500 nM. The protocol: (§2) Nuclear Morphometric Analysis (NMA) using treated organoids was performed based on a published protocol that measures cell viability based on the changes in nuclear morphology of the cells using nuclear stain Hoechst or DAPI [30]. Images of organoid nuclei were analyzed using the ImageJ Nuclear Irregularity Index (NII) plugin for key parameters that included cell area, radius ratio, area box, aspect, and roundness. Using the published spreadsheet template, the NII of each cell was calculated with the following formula: NII=Aspect−Area Box+Radius Ratio+Roundness. The area vs NII of vehicle-treated cells were plotted as a scatter plot using the template and considered as the normal cell nuclei. The same plots were generated for each condition, and the NII and area of treated cells were compared to the normal nuclei, and classified as one of the following NMA populations: Normal (N; similar area and NII), Mitotic (S; similar area, slightly higher NII), Irregular (I; similar area, high NII), Small Regular (SR; apoptotic, low area and NII), Senescent (LR; high area, low NII), Small Irregular (SI; low area, high NII), or Large Irregular (LI; high area, high NII). […] The percentage of cells in each NII classification category were calculated and plotted as a histogram using GraphPad Prism.

In experiment [4] the test system is iPSC^ctrl organoids. The description is as above. The experiment is classed as cell-based, human. Particulars: 500 nM. On the procedure:
as §2

Another experiment relates to SSTR5. In words: Differential expression of SSTR5 in iPSC generated pituitary tumor organoids. The experiment is classed as cell-based, human.
The subject of another experiment is macroadenomas. The conditions noted are these: patients with macroadenomas; relacorilant for three months; cited from earlier work.
The test system of the next experiment is FKBP5. In words: GR modulation: GR target gene FKBP5 expression in PitNET organoids. Format: cell-based, human.
Experiment [5] deals with hPITOs generated from CD patients. In words: High-throughput drug screen, MTS assay. Format: cell-based, human. The conditions noted are these: 1 uM, 72 hrs. The protocol: Patient adenoma-derived pituitary organoids were grown in 96-well plates and treated with 147 small molecules taken from the NCI AOD9 compound library for 72 hrs. (https://dtp.cancer.gov/organization/dscb/obtaining/available_plates.html). Drugs were diluted from 10 mM DMSO stock plates into 100 uM DMSO working stocks with a final concentration of 1 uM. All vehicle controls were treated with 0.1% DMSO. Organoid proliferation was measured using CellTiter 96® AQueous One Solution Cell Proliferation Assay kit (MTS, Promega, G3582) according to the manufacturer's instruction. Organoid death was calculated based on the absorbance readings at 490 nm, collected from the MTS assay relative to the vehicle controls. Drug screens were performed with biological replicates in same screen. Drugs were selected based on their ability to target key signaling pathways and clinical relevance to the treatment. Drug sensitivity is represented by cell viability and is significant at <0.5 suppressive effect of the drugs. The percent cell viability relative to the vehicle control was calculated. Correlation coefficient across each organoid were calculated using Pearson method to assess confidence in replication. Variance Component was detected for each drug across all organoids. A random effect model was run with a single random factor for each drug and estimated variance was calculated by rejecting the null hypothesis that there isn't variation among samples. The drug responses were grouped by variance factor large (vc>100), median (100>vc>50), and small (vc<50). Heatmap was used to display the differential responses in cell viability for the drugs.
Tumor recurrence can occur in as many as 30-50% of CD patients after successful surgical treatment. Unfortunately, bilateral adrenalectomy is the chosen surgical treatment for patients with persistent CD [35]. Bilateral adrenalectomy leads to the increased risk for development of Nelson's syndrome (progressive hyperpigmentation due to ACTH secretion and expansion of the residual pituitary tumor). Although the risk of developing Nelson's syndrome following adrenalectomy can be reduced by 50% with stereotactic radiotherapy, there is a need to develop medical therapies that directly target the pituitary adenoma. Thus, we established a high-throughput drug screening assay using patient-derived pituitary organoids. […] The replicates behaved consistently with the drug response with the correlation scores of >0.8 for these samples (FIG. 3a). We estimated the variance component for each drug across all organoids. […] The drug responses were grouped by variance factor large, median, and small. The larger the variance the more variable is the drug response across the organoids. […]

[6] abbreviates: iPSC organoids (ctrl, USP48MI, USP48MV, USP8), 500 nM, vs vehicle.
Setting [7] is: iPSC^ctrl organoids, drug alone (Mife 500 nM, GANT 5 uM, Keto 10 uM, Dexa 100 nM).

Molecules are shown by their SMILES.

As to `CC#C[C@]1(O)CC[C@H]2[C@@H]3CCC4=CC(=O)CCC4=C3[C@@H](c3ccc(N(C)C)cc3)C[C@@]21C` [Mifepristone], the “expression of SSTR2” value with SSTR2 (setting [6]) is given as “significant induction”. Moreover, the “differential expression of SSTR2” value with SSTR2 (setting [7]) is “significantly induced”. In addition, the “cell proliferation (EdU uptake)” value in the experiment with iPSC^USP48MV organoids [1] and with iPSC^ctrl organoids [2] was “significant increase” in each case. Moreover, the “apoptotic cells by nuclear morphology (NII)” value in the experiment on iPSC^USP48MV organoids [3] and in the experiment on iPSC^ctrl organoids [4] was “not observed” in each case. The “expression of SSTR5” value with SSTR5 (setting [6]) is “significant induction”. Moreover, the “differential expression of SSTR5” value with SSTR5 (setting [7]) is on record as “significantly induced”. The “tumor (macroadenoma) regression” value in the experiment on macroadenomas is listed as “have not been observed”. Further, the “differential expression of FKBP5” value in the experiment with FKBP5 is recorded as “significantly reduced”. Moreover, the “response of the adenoma cells within the organoids” value in experiment [5] (hPITO7, 10 and 25) is recorded as approximately 0%; in experiment [5] (hPITO34 and hPITO35), 50%.

Source of the values: patent US20250163387A1, “HUMAN PITUITARY NEUROENDOCRINE TUMOR ORGANOIDS AND METHODS OF MAKING AND USING THE SAME” (ARIZONA BOARD OF REGENTS OF THE UNIVERSITY OF ARIZONA, A …, priority 2022, published 2025).
